Test results published in PMC10788856, “Mimicking Nonribosomal Peptides from the Marine Actinomycete Streptomyces sp. H-KF8 Leads to Antimicrobial Peptides” (ACS Infectious Diseases, 2023).
Numbered stars: 1 amine (or outer) side, 2 acyl side, 3 side chain; on linkers, the order of the positions; unused ones are H or OH. Bridge positions count the residues as written; N and C are the ends. Square brackets hold non-standard residues; d marks the D form. Peptide text beside a SMILES is read from it. Tyr(3-NO2) = N[C@@H](Cc1ccc(O)c([N+](=O)[O-])c1)C(=O)O; Glutaryl = O=C(CCCC(=O)[*:2])[*:1]; Orn = NCCC[C@H](N)C(=O)O

What was measured:
[1] = test system: Escherichia coli (CCUG 31246); experiment: Minimum microbicidal concentration (MMC99) assay; format: cell-based, E. coli; settings: BHI diluted 1/100
Protocol: (§1) The microbicidal activity of the synthetic peptides was assessed against S. aureus (ATCC 12600; American Type Culture Collection, Manassas, VA, USA), Escherichia coli (CCUG 31246; Culture Collection, University of Gothenburg, Sweden), and Candida albicans (ATCC 64549/CCUG31028) using an MMC assay, as described previously by […] et al. (specific details in Supporting Information, pages 10, 11).[28] The assay was performed in BHI diluted 1/100 (BHI100). […] page 11: Table S5. Energy and structural ensembles of synthesized peptides. […] Energy -3887.06 -3620.88 -4968.42 -2163.76 -2646.75 Van der Waals solv. Energy 117.32 91.57 183.20 -88.88 -139.89 Mean RMSD* (Å), mean±SD […] Heavy atoms 1.87 ± 0.33 1.77 ± 0.50 0.98 ± 0.34 0.63 ±0.22 2.88 ±0.62 MMC99 activity including salt stability measurements Antimicrobial activity of L2 and L3 in the presence of NaCl. 1Table S6. Peptide MMC99 (μg/ml) sin NaCl S. aureus E.coli C. albicans (mM) 2[…] 0 50 25 25 85 - - - - - - >200 >200 >200 150 - - - - - - >200 >200 >200 3L 0 12.5 12.5 25 12,5 6.3 6.3 12.5 6.3 12.5 […] 150 >400 >400 (-)2 >400 >400 >400 >200 >200 >200 […] or 150 mM NaCl. L2 and L3 were serially diluted in twofold steps with a starting dilution of 200 μg/ml […] All sample dilutions were run in duplicates (L2) or triplicates (L3). 2 The growth of S. aureus at 24 h in BHI 100 with 85 or 150 mM NaCl was reduced. Minimum microbicidal concentration (MMC), killing 99% of the inoculum. All microorganisms were cultured in brain-heart infusion broth (BHI) overnight on a shaker at 37°C. The cultures were thereafter transferred to fresh BHI broth in volumes constituting 10% of total, and incubated for an additional 2 h to reach exponential growth phase. The bacterial cultures were washed once in BHI diluted 1/100 (BHI100), followed by resuspension in BHI100. The cell suspensions were diluted to a density of […] (bacteria) or 2x10^7 CFU/ml (yeast), as estimated by optical density measurement at 590 nm. […] Serum stability Figure S 133. […] A) peptide L2 B) peptide L3. C) peptide L3-K. D) peptide C3.

[2] = 37 °C, RP-HPLC
Protocol: Peptide stability in serum is another limiting factor for AMPs as novel antibiotics.[30]
Peptide serum stability was performed according to D́Aloisio et al.[30] and Chen et al.[51] with some minor modifications. The serum stability was investigated using human serum (Sigma-Aldrich) from Human male AB plasma, USA origin, sterile-filtered. 250 μL serum was temperature-equilibrated at 37 °C and 100 μL aqueous peptide solution (L2: 1 mM; L3: 0.9 mM; L3-K: 0.7 mM; and C3: 0.5 mM) was added. RP-HPLC was measured at time intervals of 0, 0.5, 1, 4, and 24 h. For RP-HPLC samples, 30 μL of peptide solution was taken, 7 μL of Fmoc-Gly solution (4 mM) was added, and 2 μL of the sample was injected to HPLC. […]
Figure S 133. RP-HPLC chromatogram (gradient from 10 to 90% acetonitrile in water over 10 min at 2
ml/min, detection at 254 nm) of peptides tested for serum stability. A) peptide L2 B) peptide L3. C)
(1 picture or pasted object on this page, not shown here)

C. albicans = experiment: microbe, parasite or virus in culture; format: cell-based; settings: 16 h
E. coli CCUG31246 [3] = format: cell-based; settings: E. coli CCUG31246; 1:10 BHI; 5 × 10^5 CFU/mL; 37 °C, 16 h, steady agitation; used as 1× MIC
S. aureus (ATCC 12600) = experiment: Minimum microbicidal concentration (MMC99) assay; format: cell-based; settings: BHI diluted 1/100, 37 °C, median, n = 3
Protocol: as §1

E. coli CCUG31246 [4] = experiment: Propidium iodide staining (pore formation); format: cell-based
Protocol: Due to the overall similarity of the peptides’ cytological profiles to that of polymyxin B, we further tested their ability to form pores in the cell membrane. To this end, we used the fluorescence probe propidium iodide, which cannot cross intact membranes but can enter cells through pores of sufficient size.[39]
Pore formation was investigated with the fluorescence dye propidium iodide as described previously[56] with minor modifications. E. coli CCUG31246 was grown to an OD600 of 0.3 and subsequently treated with different peptides for 10 and 60 min. Samples were stained with 1 μg/mL propidium iodide for 15 min (added 5 min before adding antibiotics for the 10 min time point and after 45 min of antibiotic treatment for the 60 min time point), spotted on 1.2% agarose films, and sealed with a gene frame. Microscopy was performed as described above. The fluorescence intensity of the different samples was analyzed with MicrobeJ. For detection of bacterial cells from phase contrast images, parameters were set to an area of 1.5-max, length of 1-max, width 0.5–2.5, curvature 0–1.5, and an angularity of 0–0.5. Fluorescence intensity parameters were set to an area of 1.5-max, length of 1-max, and width 0.5–2.5. All other parameters remained at default settings.

## CC(C)[C@H]1NC(=O)[C@H](CCCN)NC(=O)[C@H]([C@@H](C)O)NC(=O)[C@H](CCCN)NC(=O)[C@H](Cc2c[nH]c3ccccc23)NC(=O)[C@@H](C)NC(=O)[C@@H](C(C)C)NC(=O)[C@@H](C)NC(=O)[C@H](Cc2c[nH]c3ccccc23)NC(=O)CCCC(=O)NCCCC[C@@H](C(N)=O)NC(=O)[C@H](Cc2ccc(O)c([N+](=O)[O-])c2)NC1=O [C3] (W[dA][dV][dA]W[Orn]T[Orn][dV][Tyr(3-NO2)]K-NH2; linker N-11 via Glutaryl)
[1]
  active concentrations against E. coli (MMC99, text): ≥ 100 µg/mL
[1]; 37 °C, 2 h, median, n = 3
  E. coli MMC99 2 h: >100 µg/mL
[1]; 37 °C, 6 h, median, n = 3
  E. coli MMC99 6 h: >100 µg/mL
[1]; 37 °C, 24 h, median, n = 3
  E. coli MMC99 24 h: 100 µg/mL
[2]; human serum from male AB plasma, 250 μL serum + 100 μL aqueous peptide solution (L2 1 mM; L3 0.9 mM; L3-K 0.7 mM; C3 0.5 mM), 0, 0.5, 1, 4, 24 h, Fmoc-Gly internal standard
  stability in human serum: stable after 24 h
[2]; human serum, 24 h, detection at 254 nm
  additional peaks / shoulder in chromatogram after 24 h in serum, total volume percentage: does not show any additional signal
C. albicans
  C. albicans MIC: >512 µg/mL
E. coli CCUG31246 [3]
  MIC obtained for mechanistic experiments: 512 µg/mL
S. aureus (ATCC 12600); 6 h
  S. aureus MMC99 6 h: >100 µg/mL
S. aureus (ATCC 12600); 24 h
  S. aureus MMC99 24 h: >100 µg/mL
S. aureus (ATCC 12600); lowest concentration killing 99% of inoculum, 2 h, two-fold dilutions 100-1.6 μg/mL
  S. aureus MMC99 2 h: >100 µg/mL
E. coli CCUG31246 [4]; 1× MIC (64 μg/mL L3, 128 μg/mL L3-K, 512 μg/mL C3), 60 min, 1 μg/mL propidium iodide
  cells remaining unstained by propidium iodide after 60 min: 64%
E. coli CCUG31246 [4]; 1× MIC of peptide, polymyxin B 10 μg/mL, 10 and 60 min
  propidium iodide uptake: only a small subpopulation of cells
